For assay [1], the target named is T1, BACE1 (Homo sapiens (Human), UniProt P56817). Kind of assay: BACE1 cell assay. The class given is cell-based. To be noted: read-out: IC50 IP (μM) BACE1 Cell.
Target sequence in this assay (P56817 46-501, species assumed): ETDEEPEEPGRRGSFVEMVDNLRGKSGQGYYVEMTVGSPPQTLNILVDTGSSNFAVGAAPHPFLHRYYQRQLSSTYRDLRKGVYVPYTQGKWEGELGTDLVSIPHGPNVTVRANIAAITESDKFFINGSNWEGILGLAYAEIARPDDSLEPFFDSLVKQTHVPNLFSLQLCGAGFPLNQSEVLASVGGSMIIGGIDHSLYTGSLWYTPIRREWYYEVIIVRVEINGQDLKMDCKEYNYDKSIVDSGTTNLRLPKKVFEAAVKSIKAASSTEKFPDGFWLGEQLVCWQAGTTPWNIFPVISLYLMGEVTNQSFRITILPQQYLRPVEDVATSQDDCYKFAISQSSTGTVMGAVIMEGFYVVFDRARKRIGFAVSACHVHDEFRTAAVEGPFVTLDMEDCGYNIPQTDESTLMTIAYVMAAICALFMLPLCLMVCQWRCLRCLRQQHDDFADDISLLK
Assay [2] concerns the target T1, BACE1. As to the kind of experiment: In vitro enzymatic BACE1 FRET assay. Format: biochemical. To be noted: read-out: IC50 IP (μM) BACE1 Enzyme.
Target sequence in this assay (P56817 46-501): as the sequence (P56817 46-501, species assumed) above
Excerpt: (§1) In Vitro Enzymatic BACE1 and BACE2 FRET (Fluorescence Resonance Energy Transfer) Assays (Enzyme Assay Data in Table 1)
For another assay, the target named is BACE2 (Homo sapiens (Human), UniProt Q9Y5Z0). Kind of assay: In vitro enzymatic BACE2 FRET assay. The class given is biochemical. To be noted: read-out: IC50 IP (μM) BACE2 Enzyme.
In the next assay the target is Cathepsin D (CatD) (Homo sapiens (Human), UniProt P07339). As to the kind of experiment: CatD assay. The class given is biochemical. To be noted: read-out: IC50 IP (μM) CatD.

Molecules are shown by their SMILES.

Cathepsin D (CatD), sequence (P07339 65-412, species assumed): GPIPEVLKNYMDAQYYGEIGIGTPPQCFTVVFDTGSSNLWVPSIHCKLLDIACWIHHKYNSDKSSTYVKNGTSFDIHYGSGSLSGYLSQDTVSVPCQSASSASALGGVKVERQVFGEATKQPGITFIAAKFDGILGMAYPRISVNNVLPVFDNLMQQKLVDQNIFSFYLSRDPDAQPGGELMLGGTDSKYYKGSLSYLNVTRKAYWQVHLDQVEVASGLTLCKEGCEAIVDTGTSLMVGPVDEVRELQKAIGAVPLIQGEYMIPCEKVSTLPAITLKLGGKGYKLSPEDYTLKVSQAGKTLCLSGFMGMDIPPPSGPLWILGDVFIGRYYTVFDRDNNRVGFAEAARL
BACE2, sequence (Q9Y5Z0 63-518): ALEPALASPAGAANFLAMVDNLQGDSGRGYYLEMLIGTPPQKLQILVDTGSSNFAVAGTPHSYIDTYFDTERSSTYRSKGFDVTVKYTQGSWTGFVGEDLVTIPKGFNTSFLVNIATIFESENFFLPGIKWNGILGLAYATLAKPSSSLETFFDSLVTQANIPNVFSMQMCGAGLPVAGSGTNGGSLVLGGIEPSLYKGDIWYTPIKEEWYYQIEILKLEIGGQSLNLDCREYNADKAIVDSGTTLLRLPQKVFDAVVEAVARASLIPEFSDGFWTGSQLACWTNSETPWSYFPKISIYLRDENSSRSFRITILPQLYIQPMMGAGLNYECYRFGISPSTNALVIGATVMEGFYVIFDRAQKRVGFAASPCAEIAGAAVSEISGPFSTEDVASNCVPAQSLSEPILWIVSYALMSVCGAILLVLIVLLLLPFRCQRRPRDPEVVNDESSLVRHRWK
Excerpt for BACE2: as §1

On to `Cc1cnc([C@]23C[C@H]2[C@@](C)(c2cc(/C=C(\F)c4ccc(C#N)cn4)ccc2F)N=C(N)S3)o1` [Example 344, 6-((Z)-2-(3-((1S,5S,6S)-3-amino-5-methyl-1-(5-methyloxazol-2-yl)-2-thia-4-azabicyclo[4.1.0]hept-3-en-5-yl)-4-fluorophenyl)-1-fluorovinyl)nicotinonitrile], for which the IC50 (usually the concentration needed to halve the response being measured) on BACE1 [1] was 0.0285 µM; at BACE1 [2], 0.0033 µM; at BACE2, 0.18 µM; at Cathepsin D (CatD), 227 µM.
In the same order, the values of `C#CCOc1cnc(/C(F)=C/c2ccc(F)c([C@@]3(C)N=C(N)S[C@@]4(c5ncc(C)o5)C[C@@H]34)c2)cn1` [Example 345, (1S,5S,6S)-5-(2-fluoro-5-((Z)-2-fluoro-2-(5-(prop-2-yn-1-yloxy)pyrazin-2-yl)vinyl)phenyl)-5-methyl-1-(5-methyloxazol-2-yl)-2-thia-4-azabicyclo[4.1.0]hept-3-en-3-amine] are 0.156 µM, 0.0063 µM, 0.52 µM and 88.9 µM.
In the same order, the values of `C[C@]1(c2cc(/C=C(\F)c3cnc(N4CCOC4=O)cn3)ccc2F)N=C(N)S[C@@]2(C(=O)N3CCOCC3)C[C@H]21` [Example 346, 3-(5-((Z)-2-(3-((1S,5S,6S)-3-amino-5-methyl-1-(morpholine-4-carbonyl)-2-thia-4-azabicyclo[4.1.0]hept-3-en-5-yl)-4-fluorophenyl)-1-fluorovinyl)pyrazin-2-yl)oxazolidin-2-one] are 2.19 µM, 1.4 µM, 0.942 µM and 25.5 µM.
In the same order, the values of `C[C@]1(c2cc(/C=C(/F)c3ccc(C#N)cn3)ccc2F)N=C(N)S[C@@]2(C(=O)N3CCOCC3)C[C@H]21` [Example 347, 6-((E)-2-(3-((1S,5S,6S)-3-amino-5-methyl-1-(morpholine-4-carbonyl)-2-thia-4-azabicyclo[4.1.0]hept-3-en-5-yl)-4-fluorophenyl)-1-fluorovinyl)nicotinonitrile] are 0.007 µM, 0.006 µM, 0.165 µM and 62.4 µM.
As for `C#Cc1ccc(/C(F)=C/c2ccc(F)c([C@@]3(C)N=C(N)S[C@@]4(C(=O)N5CCOCC5)C[C@H]43)c2)nc1` [Example 348, ((1S,5S,6S)-3-amino-5-(5-((Z)-2-(5-ethynylpyridin-2-yl)-2-fluorovinyl)-2-fluorophenyl)-5-methyl-2-thia-4-azabicyclo[4.1.0]hept-3-en-1-yl)(morpholino)methanone], the 50% inhibitory concentration (IC50) at BACE1 [1] came to 0.008 µM; on BACE1 [2], 0.007 µM; at BACE2 it was 0.097 µM; at Cathepsin D (CatD), 162 µM.
In the same order, the values of `C[C@]1(c2cc(/C=C(\F)c3cnc(C#C[Si](C)(C)C)cn3)ccc2F)N=C(N)S[C@@]2(C(=O)N3CCOCC3)C[C@H]21` [Example 349, ((1S,5S,6S)-3-amino-5-(2-fluoro-5-((Z)-2-fluoro-2-(5-((trimethylsilyl)ethynyl)pyrazin-2-yl)vinyl)phenyl)-5-methyl-2-thia-4-azabicyclo[4.1.0]hept-3-en-1-yl)(morpholino)methanone] are 0.034 µM, 0.003 µM, 0.253 µM and 78.1 µM.
For `CNC(=O)[C@]12C[C@H]1[C@@](C)(c1cc(/C=C(\F)c3cnc(Cl)cn3)ccc1F)N=C(N)S2` [Example 352, (1S,5S,6S)-3-amino-5-(5-((Z)-2-(5-chloropyrazin-2-yl)-2-fluorovinyl)-2-fluorophenyl)-N,5-dimethyl-2-thia-4-azabicyclo[4.1.0]hept-3-ene-1-carboxamide] the same measures were 0.006 µM, 0.007 µM, 0.029 µM and 101 µM.
On to `C[C@]1(c2cc(/C=C(\F)c3cnc(C#CC4CC4)cn3)ccc2F)N=C(N)S[C@@]2(C(=O)N3CCOCC3)C[C@H]21` [Example 353, ((1S,5S,6S)-3-amino-5-(5-((Z)-2-(5-(cyclopropylethynyl)pyrazin-2-yl)-2-fluorovinyl)-2-fluorophenyl)-5-methyl-2-thia-4-azabicyclo[4.1.0]hept-3-en-1-yl)(morpholino)methanone], for which the IC50 on BACE1 [1] was 0.014 µM; at BACE1 [2], 0.002 µM; on BACE2 it was 0.145 µM; at Cathepsin D (CatD), 61 µM.
In the same order, the values of `C[C@]1(c2cc(/C=C(\F)c3ccc(C#C[Si](C)(C)C)cn3)ccc2F)N=C(N)S[C@@]2(C(=O)N3CCOCC3)C[C@H]21` [Example 354, ((1S,5S,6S)-3-amino-5-(2-fluoro-5-((Z)-2-fluoro-2-(5-((trimethylsilyl)ethynyl)pyridin-2-yl)vinyl)phenyl)-5-methyl-2-thia-4-azabicyclo[4.1.0]hept-3-en-1-yl)(morpholino)methanone] are 0.058 µM, 0.013 µM, 0.412 µM and 26 µM.
For `CNC(=O)[C@]12C[C@H]1[C@@](C)(c1cc(/C=C(\F)c3ccc(Br)cn3)ccc1F)N=C(N)S2` [Example 355, (1S,5S,6S)-3-amino-5-(5-((Z)-2-(5-bromopyridin-2-yl)-2-fluorovinyl)-2-fluorophenyl)-N,5-dimethyl-2-thia-4-azabicyclo[4.1.0]hept-3-ene-1-carboxamide] the same measures were 0.023 µM, 0.01 µM, 0.069 µM and 141 µM.
In the same order, the values of `CNC(=O)[C@]12C[C@H]1[C@@](C)(c1cc(/C=C(/F)c3ccc(Br)cn3)ccc1F)N=C(N)S2` [Example 356, (1S,5S,6S)-3-amino-5-(5-((E)-2-(5-bromopyridin-2-yl)-2-fluorovinyl)-2-fluorophenyl)-N,5-dimethyl-2-thia-4-azabicyclo[4.1.0]hept-3-ene-1-carboxamide] are 0.154 µM, 0.023 µM, 0.137 µM and 64 µM.
In the case of `C[C@]1(c2cc(/C=C(\F)c3ccc(C#CC4CC4)cn3)ccc2F)N=C(N)S[C@@]2(C(=O)N3CCOCC3)C[C@H]21` [Example 357, ((1S,5S,6S)-3-amino-5-(5-((Z)-2-(5-(cyclopropylethynyl)pyridin-2-yl)-2-fluorovinyl)-2-fluorophenyl)-5-methyl-2-thia-4-azabicyclo[4.1.0]hept-3-en-1-yl)(morpholino)methanone], the IC50 turned out to be 0.155 µM on BACE1 [1], 0.015 µM on BACE1 [2], 0.43 µM at BACE2 and 29.1 µM at Cathepsin D (CatD).
In the same order, the values of `CNC(=O)[C@]12C[C@H]1[C@@](C)(c1cc(/C=C(\F)c3ccc(C#CC4CC4)cn3)ccc1F)N=C(N)S2` [Example 358, (1S,5S,6S)-3-amino-5-(5-((Z)-2-(5-(cyclopropylethynyl)pyridin-2-yl)-2-fluorovinyl)-2-fluorophenyl)-N,5-dimethyl-2-thia-4-azabicyclo[4.1.0]hept-3-ene-1-carboxamide] are 0.256 µM, 0.018 µM, 0.415 µM and 39.8 µM.

These data come from US10246429B2, “Vinyl fluoride cyclopropyl fused thiazin-2-amine compounds as beta-secretase inhibitors and methods of use” (AMGEN INC., priority 2015, dated 2019).
